Source: publication PMC10166890, “Screening for DAX1/EWS‐FLI1 functional inhibitors identified dihydroorotate dehydrogenase as a therapeutic target for Ewing's sarcoma” (Cancer Medicine, 2023)
“Also recorded” adds a separate entry of the source. Read-outs that look alike come from different tables or passages of the source.

Experiments:
DAX1 = DAX1 reporter assay (KJMGER8/pAGal9p4‐hDAX1 cells, luciferase); format: cell-based, human; conditions: for Inhibitory effect on DAX1 reporter activity: overnight treatment; for IC50: Homo sapiens
Description: pAGal9‐hDAX1 and pAPPRE×10‐Luc + were transfected into KJMGER8 cells by electroporation using a Gene Pulser (Bio‐Rad Laboratories, Hercules, CA, USA), and clones stably expressing the DAX1 and luciferase reporter genes under the control of PPRE were selected. The obtained clone was termed KJMGER8/pAGal9p4‐hDAX1. KJMGER8/pAGal9p4‐hDAX1 cells (1.8 × 10^4 cells/well) were seeded in 384‐well white plates (Greiner Japan, Tokyo, Japan) and cultured in RPMI1640‐IPTSG medium containing 10 nM 17β‐estradiol (E2; Sigma‐Aldrich), dissolved in ethanol, with test compounds at concentration ranges of 0.01 to 10,000 nM or vehicle (dimethyl sulfoxide [DMSO]). The final DMSO concentration was ≤0.3%, and the ethanol concentration was 0.1%. The next day, Blight‐Glo Luciferase Assay Reagent (Promega, Madison, WI, USA) was added to the medium. The luciferase activity was measured using a TopCount NXT system (PerkinElmer, Waltham, MA, USA). IC50 values were calculated using XLfit version 4 (ID Business Solutions, Surrey, UK).
A DAX1 reporter assay system was constructed with the estrogen‐inducible Namalwa cell (KJMGER8 cell) by co‐transfection with pAGal9‐hDAX1 and pAPPRE×10‐Luc+.[18] In the obtained cell line KJMGER8/pAGal9p4‐hDAX1, DAX1 expression is induced by E2 treatment, and the expressed DAX1 increases luciferase expression. Reporter activity was increased by E2 treatment as expected (Figure S2). […] Using this DAX1 reporter assay system, small‐molecule compounds in an in‐house library were screened to obtain DAX1 inhibitors, and K‐234 was identified (Figure 1).
pAGal9-hDAX1 and pAPPRE×10-Luc+ were transfected into KJMGER8 cells by electroporation using a Gene Pulser (Bio-Rad Laboratories, Hercules, CA, USA), and clones stably expressing the DAX1 and luciferase reporter genes under the control of PPRE were selected. The obtained clone was termed KJMGER8/pAGal9p4-hDAX1. KJMGER8/pAGal9p4-hDAX1 cells (1.8×10^4 cells/well) were seeded in 384-well white plates (Greiner Japan, Tokyo, Japan) and cultured in RPMI1640-IPTSG medium containing 10 nM 17β-estradiol (E2; Sigma-Aldrich), dissolved in ethanol, with test compounds at concentration ranges of 0.01 to 10000 nM or vehicle (dimethyl sulfoxide [DMSO]). The final DMSO concentration was ≤0.3%, and the ethanol concentration was 0.1%. The next day, Blight-Glo Luciferase Assay Reagent (Promega, Madison, WI, USA) was added to the medium. The luciferase activity was measured using a TopCount NXT system (PerkinElmer, Waltham, MA, USA). IC50 values were calculated using XLfit version 4 (ID Business Solutions, Surrey, UK)

A‐673 cells = assay: Cell viability assay (XTT), A‐673 cells; format: cell-based, human; conditions: for GI50: Homo sapiens, A673; for Effect of DHODH overexpression on cell growth inhibitory effect in A‐673 cells: pcDNA3.1hygro(+)‐hDHODH transfected
Description: (§1) AsPC‐1, A‐673, and TC‐71 cells were seeded in 96‐well plates (800 cells/well for AsPC‐1, 2000 cells/well for A‐673, and 400 cells/well for TC‐71) and cultured overnight. Vehicle (DMSO) or a test compound diluted with the medium was then added to the wells (final DMSO concentration was 0.3%), and 72 h later, 2,3‐bis[2‐methoxy‐4‐nitro‐5‐sulfophenynl]‐2H‐tetrazolium‐5‐carboxanilide inner salt (XTT) reagent (Roche Diagnostics, Mannheim, Germany) was added to the medium. After 3‐h incubation at 37°C, the formation of the formazan dye was determined by measuring absorbance at 490 and 650 nm using a SpectraMax 340PC system (Molecular Devices, Sunnyvale, CA, USA).

MHH‐ES‐1 cells = assay: Cell viability, MHH‐ES‐1 cells; format: cell-based, human; conditions: 120 h, type 2 fusion
Description: (§2) FIGURE 2 K‐234 influences the growth of Ewing's sarcoma. (A) Ewing's sarcoma‐derived A‐673 and TC‐71 cells and human pancreas adenocarcinoma‐derived AsPC‐1 cells as a control were treated with indicated concentrations of K‐234 for 72 h, and cell viability was measured. Each value represents the mean of duplicate measurements. (B) Ewing's sarcoma with type 2‐fusion gene‐derived SK‐ES‐1, RD‐ES, and MHH‐ES‐1 cells and Ewing's sarcoma with EWS‐ERG fusion gene‐derived CADO‐ES1 cells were treated with indicated concentrations of K‐234 for 120 h, and cell viability was measured. Each value represents the mean of duplicate measurements.

RD‐ES cells = assay: Cell viability, RD‐ES cells; format: cell-based, human; conditions: 120 h, type 2 fusion
Description: as §2

CADO‐ES1 cells = assay: Cell viability, CADO‐ES1 cells; format: cell-based, human; conditions: 120 h, EWS‐ERG fusion
Description: as §2

TC‐71 cells = assay: Cell viability assay (XTT), TC‐71 cells; format: cell-based, human; conditions: 72 h
Description: as §1

SK‐ES‐1 cells = assay: Cell viability, SK‐ES‐1 cells; format: cell-based, human; conditions: 120 h, type 2 fusion
Description: as §2

DHODH [1] = biological target: T1, DHODH (Mus musculus, UniProt O35435); assay: DHODH inhibition with mouse liver mitochondria; format: biochemical; conditions: mouse liver mitochondria; read-out: DHODH IC50 Mouse
T1 construct: IC50 value for the mouse liver mitochondrial fraction; from tissue; host or cells: mouse liver mitochondria
T1 sequence (O35435 whole entry): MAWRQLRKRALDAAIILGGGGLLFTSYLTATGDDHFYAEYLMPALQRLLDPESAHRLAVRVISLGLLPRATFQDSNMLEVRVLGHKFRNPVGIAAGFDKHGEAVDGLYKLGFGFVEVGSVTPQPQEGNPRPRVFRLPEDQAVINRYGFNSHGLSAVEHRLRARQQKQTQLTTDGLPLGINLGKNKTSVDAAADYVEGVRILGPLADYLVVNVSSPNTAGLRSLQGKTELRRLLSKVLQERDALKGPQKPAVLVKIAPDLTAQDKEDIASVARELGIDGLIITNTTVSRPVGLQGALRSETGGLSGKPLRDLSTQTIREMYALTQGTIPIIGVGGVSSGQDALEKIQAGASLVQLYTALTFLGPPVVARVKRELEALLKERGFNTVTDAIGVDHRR

EWS‐FLI1‐related genes = assay: EWS‐FLI1‐related gene expression in A‐673 cells (RT‐qPCR); format: cell-based, human; conditions: 48 h; for Expression of DAX1, IGFBP3, and DKK1 in A‐673 cells / Effect of uridine addition on up‐regulation of DAX1, IGFBP3, and DKK1: 1000 nmol/L; for Effect of uridine addition on up‐regulation of DAX1, IGFBP3, and DKK1: uridine 100 μM
Description: Total RNA was extracted using the RNeasy Plus Mini kit (Qiagen, Valencia, CA, USA) according to the manufacturer's protocol. cDNA was synthesized from 1 μg of total RNA using a SuperScript VILO cDNA synthesis kit (Thermo Fisher Scientific). Real‐time PCR was carried out using TaqMan Fast Universal PCR Master Mix (Thermo Fisher Scientific).
FIGURE 3 EWS‐FLI1‐related gene expression after treatment with DAX1 inhibitors and knockdown of FLI1 in A‐673 cells. (A) A‐673 cells were treated with siRNA of FLI1 (siFLI‐1, siFLI‐2) or control siRNA (control siRNA1, control siRNA2) for 24 h, and EWS‐FLI1‐related genes were analyzed (details of siRNA are shown in Table S2). The gene expression was normalized by the GAPDH expression and normalized by the mean of control siRNA‐treated samples. Each bar represents the mean of duplicate measurements. (B) A‐673 cells were treated with PTC299 at 1000 nM for 48 h, and EWS‐FLI1‐related genes were analyzed. Gene expression was normalized by the GAPDH expression and by DMSO‐treated samples. Each bar represents the mean of duplicate measurements.
FIGURE 6 Influence of DHODH overexpression on Ewing's sarcoma cell growth and the EWS‐FLI1‐regulated gene expression. (A) pcDNA3.1hygro(+)‐hDHODH was transfected into A‐673 cells. The A‐673 cells with DHODH or control A‐673 cells were treated with indicated concentrations of PTC299 and KF20444 for 72 h, and cell viability was measured. Each plot represents the mean of triplicate measurements. (B) A‐673 cells with or without uridine (100 μM) were treated with indicated concentrations of PTC299 for 72 h, and cell viability was measured. Each plot represents the mean of triplicate measurements. (C) A‐673 cells with or without uridine (100 μM) were treated with PTC299 and KF20444 at 1000 nmol/L for 48 h, and the EWS‐FLI1‐related gene expression was evaluated. The expression was normalized by GAPDH and by DMSO‐treated samples. (D) KJMGER8/pAGal9p4‐hDAX1 cells with or without uridine (100 μM) were treated with indicated concentrations of PTC299 and K‐733 overnight, and the luciferase activity was measured. Each plot represents the mean of quadruplicate measurements.

DHODH [2] = biological target: T2, DHODH (Rattus norvegicus, UniProt Q63707); assay: DHODH inhibition with rat liver mitochondria; format: biochemical
T2 construct: from tissue; host or cells: rat liver mitochondria
T2 sequence (Q63707 whole entry): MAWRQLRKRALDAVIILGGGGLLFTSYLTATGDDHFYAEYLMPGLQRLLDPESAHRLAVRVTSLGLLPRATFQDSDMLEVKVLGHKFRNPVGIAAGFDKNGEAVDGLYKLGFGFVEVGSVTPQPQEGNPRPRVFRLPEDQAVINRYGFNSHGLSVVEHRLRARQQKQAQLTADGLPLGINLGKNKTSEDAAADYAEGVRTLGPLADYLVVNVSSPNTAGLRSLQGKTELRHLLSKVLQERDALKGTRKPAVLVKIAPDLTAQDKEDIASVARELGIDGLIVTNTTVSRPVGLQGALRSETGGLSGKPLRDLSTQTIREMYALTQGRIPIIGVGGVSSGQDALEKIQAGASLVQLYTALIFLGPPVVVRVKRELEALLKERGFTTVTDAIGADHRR

DHODH [3] = biological target: T3, DHODH (Homo sapiens, UniProt Q02127); assay: DHODH inhibition assay, A‐673 mitochondria fraction (orotic acid production, LCMSMS); format: biochemical
T3 construct: The mitochondria fraction was isolated from A‐673 cells using Q proteome Mitochondria Isolation kit; endogenous in cells; host or cells: A-673 cells, mitochondria fraction
T3 sequence (Q02127 whole entry): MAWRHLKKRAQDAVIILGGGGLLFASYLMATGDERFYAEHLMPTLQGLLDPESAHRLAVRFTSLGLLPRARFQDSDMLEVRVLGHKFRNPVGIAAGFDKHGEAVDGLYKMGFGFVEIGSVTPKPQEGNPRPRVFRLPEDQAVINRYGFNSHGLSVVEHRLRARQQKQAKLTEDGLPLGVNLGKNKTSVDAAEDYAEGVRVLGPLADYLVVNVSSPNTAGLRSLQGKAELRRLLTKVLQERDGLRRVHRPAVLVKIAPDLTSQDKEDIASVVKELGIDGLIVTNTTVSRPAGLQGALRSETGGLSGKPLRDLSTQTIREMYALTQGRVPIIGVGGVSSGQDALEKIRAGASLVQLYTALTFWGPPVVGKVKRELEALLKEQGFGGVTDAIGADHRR
Description: The mitochondria fraction was isolated from A‐673 cells using Q proteome Mitochondria Isolation kit (QIAGEN, Hilden, Germany). The protein concentration of the fraction was determined using the DC‐protein assay kit (Bio‐Rad Laboratories, Hercules, CA, USA) with bovine serum albumin (Sigma‐Aldrich) as the standard. […] The reaction was quenched by adding 120 μL of 3 μM 5‐fluoroorotic acid acetonitrile solution. These samples were then centrifuged at 5000 g for 5 min to precipitate proteins, and the supernatant was collected. The samples were diluted 10‐fold with 70% acetonitrile‐water and subjected to liquid chromatography with tandem mass spectrometry (LCMSMS). The analyte was then separated on a hydrophilic interaction chromatography column (PC‐HILIC; 5 μm, 4.6 mm I.D. × 50 mm; Osaka Soda, Osaka, Japan). LCMSMS detection was performed by electrospray ionization in negative ion mode.

[4] = KJMGER8, Table S3, read-out: DAX1 reporter IC50
[5] = 50% growth inhibition concentration, A‐673 cells
[6] = KJMGER8/pAGal9p4‐hDAX1 cells, 10 nM E2, overnight, read-out: IC50 for inhibition of DAX1 reporter activity

`CC(=O)O[C@H]1C(=O)[C@@]2(C)[C@H]([C@H](OC(=O)c3ccccc3)[C@]3(O)C[C@H](OC(=O)[C@H](O)[C@@H](NC(=O)c4ccccc4)c4ccccc4)C(C)=C1C3(C)C)[C@]1(OC(C)=O)CO[C@@H]1C[C@@H]2O` [Paclitaxel] was tested, and the “Inhibitory effect on DAX1 reporter activity” value (DAX1) was “did not inhibit” and the “Inhibitory effect on DAX1 reporter activity” value (DAX1; listed as paclitaxel) was “did not show a remarkable inhibitory effect”.
`C/C(O)=C(\C#N)C(=O)Nc1ccc(C(F)(F)F)cc1` [Teriflunomide] gave a GI50 (A‐673 cells; Figure 7 legend) of over 10000 nM and an IC50 (DAX1; [4]) of 8500 nM.
`Cc1c(-c2ccc(-c3ccccc3F)cc2)nc2ccc(F)cc2c1C(=O)O` [Brequinar] gave a GI50 (A‐673 cells; [5]) of 115 nM and an IC50 (DAX1; [4]) of 73 nM.
For `O=C(Oc1ccccc1)N1CCc2c([nH]c3ccc(Cl)cc23)C1c1ccc(Cl)cc1` (stereo not drawn) [K‐234, phenyl 6‐chloro‐1‐(4‐chlorophenyl)‐1,3,4, 9‐tetrahydro‐2H‐pyrido[3,4‐b]indole‐2‐carboxylate], the “Cell viability of A‐673 cells” value (A‐673 cells; 72 h) was “significantly reduced the viability”, the “Cell viability of MHH‐ES‐1 cells” value (MHH‐ES‐1 cells) was “significantly reduced the viability” and the “Cell viability of RD‐ES cells” value (RD‐ES cells) was “significantly reduced the viability”. The “Cell viability of CADO‐ES1 cells” value (CADO‐ES1 cells) was “significantly reduced the viability”, the “Cell viability of TC‐71 cells” value (TC‐71 cells) was “significantly reduced the viability” and the IC50 (DAX1; [6]) was 94.5 nM. For the same compound, the “Cell viability of SK‐ES‐1 cells” value (SK‐ES‐1 cells) was “significantly reduced the viability”.
`O=C(O)c1c2c(nc3ccc(F)cc13)-c1ccc(-c3ccccc3F)cc1CCC2` [KF20444] was tested, and the “Cell viability of A‐673 cells” value (A‐673 cells; 72 h) was “reduced the cell viability”, the “Effect of DHODH overexpression on cell growth inhibitory effect in A‐673 cells” value (A‐673 cells; 72 h) was “weakened; also recorded: partially attenuated” and the GI50 (A‐673 cells; [5]) was 22.2 nM. The IC50 (DHODH [1]) was 6.1 nM, the “Expression of DAX1, IGFBP3, and DKK1 in A‐673 cells” value (EWS‐FLI1‐related genes) was “up‐regulated” and the “Effect of uridine addition on up‐regulation of DAX1, IGFBP3, and DKK1” value (EWS‐FLI1‐related genes) was “abrogated”. The IC50 (DHODH [2]) was 34.1 nM, the IC50 (DHODH [3]; Table S3, read-out: DHODH IC50) was 16.8 nM and the IC50 (DAX1; [4]) was 13.2 nM.
For `COc1ccc([C@H]2c3[nH]c4ccc(Cl)cc4c3CCN2C(=O)Oc2ccc(Cl)cc2)cc1` [PTC299, 4‐chlorophenyl (S)‐6‐chloro‐1‐(4‐methoxyphenyl)‐1,3,4,9‐tetrahydro‐2H‐pyrido[3,4‐b]indole‐2‐carboxylate], the “Cell viability of A‐673 cells” value (A‐673 cells; 72 h) was “decreased the viability”, the “Effect of knockdown and overexpression of DAX1 on the reduction in viability of A‐673 cells” value (A‐673 cells; 72 h) was “no marked effect” and the “Effect of DHODH overexpression on cell growth inhibitory effect in A‐673 cells” value (A‐673 cells; 72 h) was “significantly attenuated; also recorded: completely canceled”. For the same compound, the GI50 (A‐673 cells; [5]) was 5.11 nM, the “Effect of uridine addition on growth inhibitory effect in A‐673 cells” value (A‐673 cells; uridine 100 μM, 72 h) was “completely blocked; also recorded: completely canceled” and the IC50 (DHODH [1]) was 103 nM. For the same compound, the “DAX1 expression in A‐673 cells” value (EWS‐FLI1‐related genes; 1000 nM) was “slightly induced”, the “Expression of DAX1, IGFBP3, and DKK1 in A‐673 cells” value (EWS‐FLI1‐related genes) was “up‐regulated” and the “Effect of uridine addition on up‐regulation of DAX1, IGFBP3, and DKK1” value (EWS‐FLI1‐related genes) was “abrogated”. The IC50 (DHODH [2]) was 1520 nM, the “Cell viability of TC‐71 cells” value (TC‐71 cells) was “decreased the viability” and the IC50 (DHODH [3]; read-out: IC50 for orotic acid production through DHODH) was 4.13 nM. The IC50 (DAX1; [6]) was 33 nM and the “Effect of uridine addition on inhibition of DAX1 reporter activity” value (DAX1; uridine 100 μM, overnight) was “completely abrogated”.
`CC(=O)N1CCc2c([nH]c3ccc(Br)cc23)C1c1ccccc1` (stereo not drawn) [NSC 665564] was tested, and the GI50 (A‐673 cells; [5]) was 119 nM, the IC50 (DHODH [3]; Table S3, read-out: DHODH IC50) was 3.49 nM and the IC50 (DAX1; [4]) was 666 nM.
